Assay results: publication PMC5127189 (Scientific Reports, 2016)

What was measured:
[1] = test system: ds26 (DNA, duplex) CAATCGGATCGAATTCGATCCGATTG; assay: fluorescent intercalator displacement (FID); set-up: unit not given here; details: thiazole orange displaced
[2] = test system: Pu22 (DNA, G4) TGAGGGTGGGTAGGGTGGGTAA; assay: fluorescent intercalator displacement (FID); set-up: unit not given here; details: thiazole orange displaced
[3] = test system: c-kit-1 (DNA, G4) CGGGCGGGCACGAGGGAGGGT; assay: fluorescent intercalator displacement (FID); set-up: unit not given here; details: thiazole orange displaced
[4] = test system: HTG21 (DNA, G4) GGGTTAGGGTTAGGGTTAGGG; assay: fluorescent intercalator displacement (FID); set-up: unit not given here; details: thiazole orange displaced
[5] = test system: c-kit-2 (DNA, G4) CGGGCGGGCGCTAGGGAGGGT; assay: fluorescent intercalator displacement (FID); set-up: unit not given here; details: thiazole orange displaced
[6] = test system: Pu27 (DNA, G4) TGGGGAGGGTGGGGAGGGTGGGGAAGG; assay: fluorescent intercalator displacement (FID); set-up: unit not given here; details: thiazole orange displaced
[7] = test system: HL-7702 cells; assay: MTT cytotoxicity assay, normal cell line; type: cell-based, human; details: HL-7702, 48 h; for Inhibitory rates (%): footnote a: 20 μM, footnotes b, c (salts, cisplatin) cut off
Experimental: (§1) The cytotoxic activity of the L^a–L^d and complexes 1–14 were tested against a panel of cell lines such as Hep-G2, NCI-H460, SK-OV-3, HCT-8, BEL-7402 cells, and one normal cell line, HL-7702, and cell viability was determined using the MTT assay. Cisplatin was used as the positive control.

[8] = test system: Hep-G2 cells; details: Hep-G2, 48 h; for Inhibitory rates (%): footnote a: 20 μM, footnotes b, c (salts, cisplatin) cut off
Experimental: as §1

[9] = test system: HCT-8 cells; assay: MTT cytotoxicity assay; type: cell-based, human; details: HCT-8, 48 h; for Inhibitory rates (%): footnote a: 20 μM, footnotes b, c (salts, cisplatin) cut off
Experimental: as §1

[10] = test system: NCI-H460 cells; assay: MTT cytotoxicity assay; type: cell-based, human; details: NCI-H460, 48 h; for Inhibitory rates (%): footnote a: 20 μM, footnotes b, c (salts, cisplatin) cut off
Experimental: as §1

[11] = test system: SK-OV-3 cells; assay: MTT cytotoxicity assay; type: cell-based, human; details: SK-OV-3, 48 h; for Inhibitory rates (%): footnote a: 20 μM, footnotes b, c (salts, cisplatin) cut off
Experimental: as §1

[12] = test system: BEL-7402 cells; assay: MTT cytotoxicity assay; type: cell-based, human; details: BEL-7402, 48 h; for Inhibitory rates (%): footnote a: 20 μM, footnotes b, c (salts, cisplatin) cut off
Experimental: as §1

[13] = test system: human hepatoma (BEL-7402) xenograft; assay: In vivo antitumor activity, BEL-7402 xenograft model; set-up: species or system nude mice; details: cisplatin, 2 mg/kg/2days ip; for Tumor Volume (end): day 18, 2 mg/kg
Experimental: Animal used, acute toxicity studies and antitumor activity toward BEL-7402 in vivo of complex 3 (16 and 8 mg/kg, two time a day,17 days (ip)), complex 6 (3.2 and 1.6 mg/kg/ day, 17 days) and cisplatin (2 mg/kg/2days), were similar to that reported by Chen[43][80]. BEL-7402 xenograft mouse models were purchased from Beijing HFK Bioscience Co., Ltd (Beijing, China, approval No. SCXK 2014-004). The animal procedures were approved by the Institute of Radiation Medicine Chinese Academy of Medical Sciences (Tian Jin, China, approval No. SYXK 2014-0002). And all of the experimental procedures were carried out in accordance with the NIH Guidelines for the Care and Use of Laboratory Animals. Animal experiments were approved by the Animal Care and Use Committee of Institute of Radiation Medicine Chinese Academy of Medical Sciences.

[14] = Body weight in the BEL-7402 xenograft study
Experimental: To investigate the efficacy of 3 to inhibit tumor growth in vivo, a mouse model of human hepatoma (BEL-7402) xenograft was used. The tumor-bearing nude mice received treatment when the tumor size was between 100 and 160 mm^3. The mice were treated with 3 at 16 and 8 mg/kg two times every day, and treatment of cisplatin with 2 mg/kg/2days as the positive control.
(1 picture or pasted object on this page, not shown here)

[15] = test system: Hep-G2 cells; assay: Distribution of metal in nuclear and mitochondrial fractions (ICP-MS); type: cell-based, human; details: Hep-G2, 24 h
Experimental: The distributions of metal (cisplatin, complexes 1–6, 7, 8, 10 and 11) in the nuclear fraction and mitochondrial fractions of Hep-G2 cells were studied after exposure of Hep-G2 cells to 1–6, 7, 8, 10, 11 and cisplatin for 24 h according to our previous reports. […] Taken together, their difference of metal (Pt, Ni or Pd) distribution for complexes 1–6, 7, 8, 10, 11 and cisplatin could be attributed to their differences in cytotoxicity and the apoptotic pathways in Hep-G2 cells.

[16] = test system: Hep-G2 cells; assay: Cellular uptake of metal by ICP-MS; type: cell-based, human; details: Hep-G2, 24 h; 3 5 μM, 6 14 μM, 7 16 μM, 8 10 μM, 10 12 μM, 11 6 μM, cisplatin 10 μM
Experimental: In order to understand the uptake and distribution of cisplatin, complexes 1–6, 7, 8, 10 and 11 in Hep-G2 cells, an ICP-MS assay was performed to quantify the amount of metal (Pt, Ni or Pd) taken up by the cells.

[17] = test system: ds26 (DNA, duplex) CAATCGGATCGAATTCGATCCGATTG; assay: fluorescent intercalator displacement (FID); details: K+ 100 mM (TBS); 10 mM Tris, pH 7.35 (TBS as defined in Table 4); thiazole orange displaced
[18] = test system: HTG21 (DNA, G4) GGGTTAGGGTTAGGGTTAGGG; assay: fluorescent intercalator displacement (FID); details: K+ 100 mM (TBS); 10 mM Tris, pH 7.35 (TBS as defined in Table 4); thiazole orange displaced
[19] = test system: c-kit-1 (DNA, G4) CGGGCGGGCACGAGGGAGGGT; assay: fluorescent intercalator displacement (FID); details: K+ 100 mM (TBS); 10 mM Tris, pH 7.35 (TBS as defined in Table 4); thiazole orange displaced
[20] = test system: Pu22 (DNA, G4) TGAGGGTGGGTAGGGTGGGTAA; assay: fluorescent intercalator displacement (FID); details: K+ 100 mM (TBS); 10 mM Tris, pH 7.35 (TBS as defined in Table 4); thiazole orange displaced
[21] = test system: Pu27 (DNA, G4) TGGGGAGGGTGGGGAGGGTGGGGAAGG; assay: fluorescent intercalator displacement (FID); details: K+ 100 mM (TBS); 10 mM Tris, pH 7.35 (TBS as defined in Table 4); thiazole orange displaced

Compound | ds26DC50 [1] | Pu22DC50 [2] | c-kit-1DC50 [3] | HTG21DC50 [4] | c-kit-2DC50 [5] | Pu27DC50 [6] | Inhibitory rates (%) [7] | Inhibitory rates (%) [8] | Inhibitory rates (%) [9] | Inhibitory rates (%) [10] | Inhibitory rates (%) [11] | Inhibitory rates (%) [12] | other results
CS(C)=O.O=C1c2c([c-]ccc2Cl)-c2nccc3cccc1c23.[Cl-].[Pt+2] | 96.11 | 99.81 | 90.02 | 70.83 | 87.29 | 60.02 | – | – | – | – | – | – | –
NCCN [en, 1,2-ethylenediamine, reference compound] | – | – | – | – | – | – | 15.03 ± 0.65% | 13.64 ± 2.03% | 16.45 ± 1.92% | 20.58 ± 1.66% | 18.42 ± 0.98% | – | –
Nc1ccc2ccnc3c2c1C(=O)c1ccccc1-3.[Cl-].[Cl-].[Ni+2] | 37.01 | 7.63 | 9.11 | 3.35 | 3.61 | 1.31 | – | – | – | – | – | – | –
O.O.O.O.O.O.[Cl][Ni][Cl] [NiCl2·6H2O, reference compound] | – | – | – | – | – | – | 17.03 ± 1.16% | 15.06 ± 1.09% | 12.75 ± 1.09% | 10.44 ± 1.82% | 20.88 ± 0.61% | 11.28 ± 1.08% | –
[Cl][Pd][Cl] [PdCl2, reference compound] | – | – | – | – | – | – | 18.24 ± 1.33% | 20.14 ± 1.18% | 15.05 ± 1.84% | 9.91 ± 1.49% | 19.02 ± 1.04% | 18.59 ± 1.77% | –
N.N.[Cl][Pt][Cl] [Cisplatin, cisplatin, reference compound] | – | – | – | – | – | – | 63.09 ± 1.35% | 68.71 ± 0.56% | 56.07 ± 1.67% | 59.13 ± 1.35% | 58.06 ± 1.03% | 65.82 ± 1.11% | Tumor Volume (start) [13]: 104.79 ± 32.12 mm^3; average tumor weight (mean ± SD g) [13]: 0.52 ± 0.29 g; Tumor Volume (end) [13]: 566.82 ± 331.08 mm^3; Tumor Volume (end) ([13]; listed as cisplatin): 566 mm^3; inhibition of tumor growth (%) / Inhibition Ratio ([13]; tumor weight): 75.9%; IC50 [7]: 12.3 ± 1.19 µM; IC50 [8]: 9.65 ± 0.87 µM; body weight loss during treatment (in words) ([14]; BEL-7402 xenograft mice): severe body weight loss; Body Weight (end) ([14]; cisplatin, 2 mg/kg/2days ip): 19.6 ± 0.9 g; Body Weight (start) ([14]; cisplatin, 2 mg/kg/2days ip): 22.5 ± 1.1 g; RBW (%) (end) ([14]; cisplatin, 2 mg/kg/2days ip): 87.11 ± 4.8%; IC50 [9]: 16.3 ± 1.54 µM; IC50 [12]: 12.7 ± 0.94 µM; IC50 [10]: 18.1 ± 1.26 µM; IC50 [11]: 14.1 ± 1.07 µM; distribution of metal in nuclear and mitochondrial fractions [15]: mainly accumulated in the mitochondrial fraction; cellular accumulation of metal (Pt) [16]: 4.89 ± 0.43 nmol platinum/10^6 cells
Nc1cccc2c1C(=O)c1cccc3ccnc-2c13.[Cl-].[Cl-].[Ni+2] | – | 90.18 | 73.65 | – | 45.30 | 14.22 | – | – | – | – | – | – | ds26DC50 [17]: 70.46; HTG21DC50 [18]: 26.45
Nc1cccc2c1C(=O)c1cccc3ccnc-2c13.[Cl-].[Cl-].[Pd+2] | 90.63 | 89.64 | 78.46 | 49.08 | > 100 | 42.51 | – | – | – | – | – | – | –
Nc1ccc2ccnc3c2c1C(=O)c1ccccc1-3.[Cl-].[Cl-].[Pd+2] | 21.76 | 9.09 | 18.75 | 3.91 | 5.01 | 3.88 | – | – | – | – | – | – | –
cis-Pt(DMSO)2Cl2 [reference compound] | – | – | – | – | – | – | no activity | 17.83 ± 0.57% | no activity | no activity | 15.11 ± 1.17% | 10.74 ± 0.95% | –
COC1c2c([c-]ccc2Cl)-c2nccc3cccc1c23.CS(C)=O.[Cl-].[Pt+2] (stereo not shown) | 91.48 | – | – | 55.16 | 79.69 | – | – | – | – | – | – | – | c-kit-1DC50 [19]: 79.95; Pu22DC50 [20]: 74.91; Pu27DC50 [21]: 33.15
O=C1c2c(Cl)cc[c]3c2-c2c4c1cccc4cc[n+]2[Pt-2]31[NH2+]CCC[NH2+]1.[Cl-] (stereo not shown) [compound 9, [Pt(L^c)(pn)]Cl] | – | – | – | – | – | – | 39.56 ± 1.01% | 58.11 ± 2.05% | 40.89 ± 1.79% | 47.28 ± 1.07% | 36.74 ± 1.21% | 40.64 ± 0.85% | IC50 [7]: 80 ± 1.02 µM; IC50 [8]: 15.9 ± 2.11 µM; IC50 [9]: 25.2 ± 1.82 µM; IC50 [12]: 45 ± 0.86 µM; IC50 [10]: 25.1 ± 1.09 µM; IC50 [11]: 30.4 ± 1.19 µM
